# According to ChEMBL document CHEMBL6103652, “Niacin Ester Derivative of Brefeldin A as a Potential Dual-Target Arf1/BMX Inhibitor for Bladder Cancer” (J Nat Prod, 2025):
# What was measured:
# [1] = system: HT-29; test: Antiproliferative activity against human HT-29 cells assessed as inhibition of cell proliferation measured after 72 hrs by MTT assay; assay type: functional, cell-based; settings: HT-29, 72 h
# [2] = system: Huh-7; test: Antiproliferative activity against human Huh-7 cells assessed as inhibition of cell proliferation measured after 72 hrs by MTT assay; assay type: functional, cell-based; settings: Huh-7, 72 h
# [3] = system: L1210; test: Antiproliferative activity against mouse L1210 cells assessed as inhibition of cell proliferation measured after 72 hrs by MTT assay; assay type: functional, cell-based; settings: L1210, 72 h
# [4] = system: A549; test: Antiproliferative activity against human A549 cells assessed as inhibition of cell proliferation measured after 72 hrs by MTT assay; assay type: functional, cell-based; settings: A549, 72 h
# [5] = Antiproliferative activity against […] MB49 cells assessed as inhibition of cell proliferation measured after 72 hrs by MTT assay; assay type: functional, cell-based; settings: MB49, 72 h
# [6] = system: HCT-116; test: Antiproliferative activity against human HCT-116 cells assessed as inhibition of cell proliferation measured after 72 hrs by MTT assay; assay type: functional, cell-based; settings: HCT-116, 72 h
# [7] = system: T-24; test: Antiproliferative activity against human T24 cells assessed as inhibition of cell proliferation measured after 72 hrs by MTT assay; assay type: functional, cell-based; settings: T-24, 72 h
# [8] = system: T-24; test: Antiproliferative activity against human T24 cells assessed as inhibition of cell proliferation at 0.25 uM incubated for 72 to 120 hrs by MTT assay relative to control; assay type: functional; settings: time 72-120 hrs
# [9] = system: Bel-7402; test: Antiproliferative activity against human Bel-7402 cells assessed as inhibition of cell proliferation measured after 72 hrs by MTT assay; assay type: functional, cell-based; settings: Bel-7402, 72 h
# [10] = Cytotoxicity against human LO2 cells measured after 72 hrs by MTT assay; assay type: toxicity, cell-based, L02
smiles,measurement,setting,value
COc1cccc2c1C(=O)c1c(O)c3c(c(O)c1C2=O)C[C@@](O)(C(=O)CO)C[C@@H]3O[C@H]1C[C@H](N)[C@H](O)[C@H](C)O1 [DOXORUBICIN],IC50,[1],420 nM
same,IC50,[2],620 nM
same,IC50,[3],< 1000 nM
same,IC50,[4],440 nM
same,IC50,[5],> 1000 nM
same,IC50,[6],< 1000 nM
same,IC50,[7],250 nM
C[C@H]1CCC/C=C/[C@@H]2C[C@H](OC(=O)c3cccnc3)C[C@H]2[C@H](O)/C=C/C(=O)O1,inhibition at 0.25 µM,[8],< 40%
C[C@H]1CCC/C=C/[C@@H]2C[C@H](OC(=O)c3cccnc3)C[C@H]2[C@H](OC(=O)c2cccnc2)/C=C/C(=O)O1,inhibition at 0.25 µM,[8],< 40%
C[C@H]1CCC/C=C/[C@@H]2C[C@H](O)C[C@H]2[C@H](O)/C=C/C(=O)O1 [BREFELDIN A],IC50,[9],120 nM
same,IC50,[1],70 nM
same,IC50,[2],180 nM
same,IC50,[3],1570 nM
same,IC50,[4],60 nM
same,IC50,[5],2160 nM
same,IC50,[6],100 nM
same,IC50,[7],80 nM
same,IC50 at 72 h,[10],140 nM
